Reference: article PMC12035560, “Structures of Mycobacterium tuberculosis isoprenyl diphosphate synthase Rv2173 in substrate-bound forms” (Acta Crystallographica Section F: Structural Biology …, 2025)

Target: T1, Rv2173 (Mycobacterium tuberculosis, UniProt O53507)
T1 construct: gene idsA2
T1 sequence (O53507 whole entry): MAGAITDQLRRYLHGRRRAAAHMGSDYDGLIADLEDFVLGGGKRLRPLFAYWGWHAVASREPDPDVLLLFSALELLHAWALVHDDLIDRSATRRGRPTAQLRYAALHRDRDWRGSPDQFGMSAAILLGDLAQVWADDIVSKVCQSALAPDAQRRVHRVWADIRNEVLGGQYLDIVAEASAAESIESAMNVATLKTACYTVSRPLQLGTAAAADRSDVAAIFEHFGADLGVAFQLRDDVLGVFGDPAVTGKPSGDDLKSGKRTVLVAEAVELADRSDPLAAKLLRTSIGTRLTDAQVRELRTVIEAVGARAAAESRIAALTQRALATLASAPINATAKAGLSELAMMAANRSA

CC(C)=CCOP(=O)(O)OP(=O)(O)O [DMAPP]
X-ray crystal structure, 2.20 A, co-crystallization: Two metal ions bind to the FARM, coordinating to the DMAPP bound in the allylic/DMAPP site
